Calls of active or inactive are those of the source.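 Rule for the calls: active = compounds giving half or more protection of infected cells from virus-caused growth loss, again on retest; inactive = the rest.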
Tested on: CEM cells HIV-1 protection, formazan growth assay
Test: NCI AIDS Antiviral Assay
Conditions: for IC50: measured here: growth of uninfected CEM cells
Procedure, shortened: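 Human CEM cells, uninfected and HIV-1-infected, exposed to five drug concentrations; growth measured by soluble formazan assay and scored as percent protection from infection, with protecting compounds retested.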

SMILES	EC50 [µM]	IC50 [µM]	outcome
CCCCCCNC(=S)N/N=C(\C)c1ccccn1	> 0.2	0.0324	
CC1=CC(C)(c2c[nH]c3ccccc23)CC(C)(C)c2c1[nH]c1ccccc21 (configuration not stated)			inactive
Cc1cc2c(c(C(N)=O)c1C)-c1ccccc1C2=O	> 102	> 102	
COc1ccc2c(c1)OCC1Cc3cccc(OC)c3OC21 (configuration not stated)	> 200	44.7	
COc1ccc(C2CC(=O)c3c(cc(OC)c(OC)c3OC)O2)cc1 (configuration not stated)	> 200	20.9	
O/N=C(/Cc1ccccc1)CC(O)(C(F)(F)F)C(F)(F)F	> 200	70.8	
NCCS/C=C/C(=O)OCc1ccc(Br)cc1	> 708	97.7	
CNC(=O)c1cc2nc3ccccc3c(=O)n2c2ccccc12	> 100	> 100	
CCOc1ccc2c(ccc(/C=C\c3cc(C)c4cccnc4c3O)[n+]2C)c1	> 52.5	0.955	
COC1=CC2(c3ccccc3)C(=CC1=O)CCN2C(=O)c1ccccc1 (configuration not stated)			inactive
COc1ccc(/C=C2\N=C(N3CCCCC3)NC2=O)cc1	> 200	> 100	
N#CS/C(C(Cl)=C(Cl)Cl)=C(/Cl)[N+](=O)[O-]	> 200	8.32	
COc1cc(CNC2c3cc4c(cc3C(c3cc(OC)c(OC)c(OC)c3)[C@H]3C(=O)OCC23)OCO4)cc(OC)c1OC (some centres not stated)			inactive
Oc1ccc2c(c1)c1c(n2CCN2CCOCC2)-c2ccccc2CC1	> 200	30.2	
CCc1ccc(/C=C/C(=O)C2CN(CC)CCC2(O)/C=C/c2ccc(CC)cc2)cc1 (configuration not stated)	> 200	4.37	
CN(CC(=O)O)S(=O)(=O)c1ccc2ccccc2c1			inactive
C=C1C(C(=O)OC)[C@H]1C(=O)OC (some centres not stated)	5.5	> 200	
N#C/C(C(=S)Nc1ccc(Cl)cc1)=C1/Nc2ccccc2O1	> 200	37.2	
Clc1ccc(CN2COc3c(cc(Cl)c4cccnc34)C2)cc1	> 64.6	1.26	
CC1=NN(C(=O)c2ccccc2O)C(=O)/C1=C/c1ccc(O)cc1	> 30.9	0.0589	
C/C(=N\NC(=S)NC1CCCC1)c1ccccn1	> 2	0.0151	
O=C(O)c1ccccc1NC(=O)C1CCCCC1			inactive

SMILES	EC50 [µM]	IC50 [µM]	outcome
CC(C)(C)C1CCC2(CC1)CCN(CCCN1CCOCC1)CC2	> 55	12.3	
CN1OC2CCC1CC(OC(c1ccccc1)c1ccccc1)C2 (configuration not stated)	> 200	> 200	
CC(C)c1cc2c3c(c1O)OC(=O)C[C@@]3(C)C1[C@@H](OC(=O)C1(C)C)C2=O (some centres not stated)	> 501	295	
O=C(O)CCc1ccc2c(c1)C(=O)CC2	> 200	> 200	
CCOC(=O)n1ccc2c(C(=O)OC)c(C(=O)OC)cc(/C(=C/C(=O)OC)C(=O)OC)c21	> 151	102	
C=C1C2CC[C@H]3C4(C)CCCC(C)(C(=O)O)[C@H]4CCC3(C2)[C@@H]1OC(C)=O (some centres not stated)	> 105	77.6	
CSc1cc(=O)[nH]c(=O)[nH]1	> 200	> 200	
COc1cc(OC)cc(-n2c(N)c(-c3nc4ccccc4s3)c3ccc([N+](=O)[O-])cc3c2=O)c1	> 200	148	
CCCC(=O)NC(Nc1ccc(S(=O)(=O)Nc2ccc(OC)nn2)cc1)(C(F)(F)F)C(F)(F)F	> 200	> 200	
COc1ccc(N=C/C=C/Nc2ccc(OC)cc2)cc1	> 200	7.41	
CC1=C(C(=O)NCc2ccccc2)C(c2ccc(N(C)C)cc2)C(C(=O)NCc2ccccc2)=C(C)N1	> 72.4	> 72.4	
CCSC1(SCC)CCN(C=NC(C)(C)C)C1	> 912	> 912	
O=c1c2ccccc2nc(-c2cccc(Cl)c2)n1NCC1(O)OCC(O)C(O)C1O (configuration not stated)			inactive
CC(=O)c1c(P(=O)(OC(C)C)OC(C)C)nn(-c2ccc([N+](=O)[O-])cc2)c1C	> 166	> 166	
COc1ccc(-c2c3ccccc3c(-c3ccc(OC)cc3)c3ccccc23)cc1	> 2.69	> 2.69	
COC(=O)C1(O)CC(=O)CCC1c1ccccc1 (configuration not stated)	> 355	> 355	
COC(=O)c1cc(C)ccc1/C=C1\Cc2c(C)cc(C)cc2C1=O			inactive
C[n+]1cc(C(O)c2ccc3c(c2)OCO3)c2ccccc2c1 (configuration not stated)	> 100	29.5	
Cc1[nH]c(=O)[nH]c(=O)c1CCSSCCc1c(C)[nH]c(=O)[nH]c1=O	> 200	> 200	
C=C1C(=O)c2cc3c(cc2C(c2cc(OC)c(OC)c(OC)c2)[C@@H]1C(=O)O)OCO3 (some centres not stated)			inactive
O=C(O)CSc1c([N+](=O)[O-])cc(C(F)(F)F)cc1[N+](=O)[O-]	> 200	43.7	
O=C1OCC2OC(O)C(O)C(O)C2OC(=O)c2cc(O)c(O)c(O)c2-c2c(O)c(O)c3oc(=O)c4c(c(O)c(O)c5oc(=O)c2c3c54)-c2c1cc(O)c(O)c2O (configuration not stated)	4.17	14.8	

SMILES	EC50 [µM]	IC50 [µM]	outcome
O=C1c2ccccc2C(=O)N1CCn1nc(-c2ccccc2)cc(-c2ccccc2)c1=O	> 12.3	> 12.3	
CO[C@@H]1O[C@H](C(=O)c2ccccc2)[C@H]2OC(C)(C)O[C@@H]12	> 200	45.7	
CCC(=O)c1cn(C)c(=O)c2ccccc12			inactive
CCN(CC)C(=O)N1CCN(C)CC1	> 200	> 200	inactive
CC1=CO[C@@H]2O[C@@]3(C)CC[C@H]4[C@H](C)CC[C@@H]1[C@@]24OO3	> 200	178	
CCCCCCCCCC1CC(=O)OC2=C1C(=O)CCC2 (configuration not stated)	> 46.8	> 46.8	
O=C(Cn1c2c(c3ccccc31)CCCC2)N1CCCCC1	> 200	> 200	
O=C(Cn1c(=O)oc2ccc(C(=O)c3ccc(F)cc3)cc21)c1ccc([N+](=O)[O-])cc1	> 200	25.1	
COc1ncc(C#CC(=O)c2ccccc2OC)c(OC)n1	> 0.2	0.132	
C[S+](C)CCOC(=O)C(=[N+]=[N-])c1ccc([N+](=O)[O-])cc1			inactive
OC(c1ccccn1)c1c(Cl)cccc1Cl (configuration not stated)	> 200	> 200	
CC(=O)c1cc(N=Nc2ccc(/C=C/c3ccc(N=Nc4cc(O)c5ncccc5c4C(C)=O)cc3S(=O)(=O)O)c(S(=O)(=O)O)c2)c(O)c2ncccc12	> 29.5	28.8	
CCOC(=O)C12c3[nH]c4ccccc4c3CCN1CC1=NOC(=O)C12 (configuration not stated)	> 132	> 132	
S=C=Nc1ccc(SSc2ccc(N=C=S)cc2)cc1	> 13.5	11.2	
O=C(O)c1cc(Cl)n[nH]c1=O	> 1410	> 1410	
NCCCCC(NC(=O)C(Cc1cnc[nH]1)NC(=O)CN)C(=O)O.[Cu+2] (configuration not stated)	> 200	70.8	
CC1(CC(O)(C(F)(F)F)C(F)(F)F)NC(=O)NC1=O (configuration not stated)	> 200	> 200	
CCCCCOC(=O)c1ccc(NC(=O)CN(CC)CC)cc1	> 200	55	
CCOC(=O)c1c[nH]c(C(=O)OCC)c1-c1cccn1-c1ccccc1	> 200	24.5	
C[C@@H]([C@H]1CC[C@@]2(C)[C@@H]3CC[C@@H]4C(=CC3=CC[C@]12C)CC[C@H](N(C)C)C4(C)C)N(C)C	> 200	> 200	
C[C@]12CCC(=O)C(O)=C1CC[C@@H]1C2CC[C@]2(C)Nc3c(cnn3-c3ccccc3)CC12 (some centres not stated)			inactive
CN(C)CCSc1nc(-c2cccs2)c2ccccc2n1	> 115	26.3	

SMILES	EC50 [µM]	IC50 [µM]	outcome
CCOP(=S)(OCC)Oc1ccc2c(c1)OC(=O)C1(Cl)C2(C)C2(Cl)C(=O)Oc3cc(OP(=S)(OCC)OCC)ccc3C12C (configuration not stated)	> 18.6	> 18.6	
O=[N+]([O-])c1nccn1CCCNCCCn1ccnc1[N+](=O)[O-]	> 200	> 200	
C=CCN(N=O)C(=O)N(CCCC(NC(C)=O)C(=O)NCc1ccccc1)Cc1ccccc1 (configuration not stated)	> 40.7	> 40.7	
O=C1NCCCCCCCCNC(=O)c2cccc1c2	> 13.8	> 13.8	
CC(=O)c1cccc(NC(=O)C(=O)c2c(O)c3ccccc3oc2=O)c1	> 708	380	
COc1ccc(CC2c3cc(OC)c(OC)c(OC)c3CC[N+]2(C)C)cc1Oc1ccc(CC2c3cc4c(c(OC)c3CCN2C)OCO4)cc1 (configuration not stated)			inactive
CN(C)c1ccc(/C=C(\NC(=O)c2ccccc2)C(=O)Nc2ccccc2C(=O)NCc2ccccc2)cc1	> 151	70.8	
O=c1nc(NC(c2ccccc2)(c2ccccc2)c2ccccc2)ccn1CCO			inactive
CC(=O)NNc1nc(C)c(C(=O)/C=C/c2ccc(Cl)c(Cl)c2)s1	> 51.3	> 51.3	
c1ccc2c(c1)ncn2C1CCCCO1 (configuration not stated)	> 200	> 200	
[O-][n+]1onc2c1/C(=N/O)CCC2	> 200	> 200	
Cc1cc(NS(=O)(=O)c2ccc(Nc3c4ccccc4nc4ccccc34)cc2)no1	> 200	2	
CN1CC(=O)N(C)c2ncn(Cc3ccccc3)c2C1=O			inactive
O=C(Nc1ccc(O)cc1C(=O)O)c1ccc(O)cc1	> 229	> 229	
Cc1cc2nc(NS(=O)(=O)c3cc(C)c(Cl)cc3S)[nH]c2cc1C	> 200	> 200	
O=C1CN(c2ccccc2)CC(=O)N2C(c3ccccc3)CCCN12 (configuration not stated)			inactive
CCOc1ccc2nc(NC(=O)c3c/c(=N\NC(=O)C[N+](C)(C)C)c4ccc(O)cc4o3)sc2c1	> 178	2.24	
Clc1cc2nc(C3CCCCO3)[nH]c2cc1Cl (configuration not stated)	> 200	10.2	
CCOC(=O)/C(=C\c1ccc(C)cc1)[Se]c1ccccc1	> 5.75	> 5.75	
CSc1nc(C)c(C(=O)CCN2CCN(c3ccccn3)CC2)s1	> 87.1	4.37	
COc1ccc2c(=O)c3ccccc3oc2c1	> 200	97.7	
N#C/C(=C/c1cccs1)c1cccs1	> 200	> 200	
